These are literature values, as cited in patent publication US20150164065A1, “ORGAN ARREST, PROTECTION, PRESERVATION AND RECOVERY” (priority 2002, published 2015).

Data set [1] has as its target human NK(1) receptor (Homo sapiens, UniProt P25103).
Data set [2] concerns the target T1, NK(2) receptor (Homo sapiens, UniProt P21452).
T1 sequence (P21452 1-398): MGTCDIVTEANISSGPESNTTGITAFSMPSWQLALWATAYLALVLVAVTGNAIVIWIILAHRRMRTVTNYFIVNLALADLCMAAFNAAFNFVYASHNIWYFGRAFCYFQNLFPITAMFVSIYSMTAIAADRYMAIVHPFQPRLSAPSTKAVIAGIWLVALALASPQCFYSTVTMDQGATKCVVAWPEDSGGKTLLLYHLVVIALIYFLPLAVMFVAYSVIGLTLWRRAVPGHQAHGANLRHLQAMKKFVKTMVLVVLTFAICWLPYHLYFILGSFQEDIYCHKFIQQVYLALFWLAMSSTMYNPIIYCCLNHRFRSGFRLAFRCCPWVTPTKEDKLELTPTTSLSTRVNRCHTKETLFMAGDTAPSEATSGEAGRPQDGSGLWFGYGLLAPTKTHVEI
To be noted: relative to NK(1) receptor.

Data set [3] addresses T2, NK(3) receptor (Homo sapiens, UniProt P29371).
T2 sequence (P29371 1-465): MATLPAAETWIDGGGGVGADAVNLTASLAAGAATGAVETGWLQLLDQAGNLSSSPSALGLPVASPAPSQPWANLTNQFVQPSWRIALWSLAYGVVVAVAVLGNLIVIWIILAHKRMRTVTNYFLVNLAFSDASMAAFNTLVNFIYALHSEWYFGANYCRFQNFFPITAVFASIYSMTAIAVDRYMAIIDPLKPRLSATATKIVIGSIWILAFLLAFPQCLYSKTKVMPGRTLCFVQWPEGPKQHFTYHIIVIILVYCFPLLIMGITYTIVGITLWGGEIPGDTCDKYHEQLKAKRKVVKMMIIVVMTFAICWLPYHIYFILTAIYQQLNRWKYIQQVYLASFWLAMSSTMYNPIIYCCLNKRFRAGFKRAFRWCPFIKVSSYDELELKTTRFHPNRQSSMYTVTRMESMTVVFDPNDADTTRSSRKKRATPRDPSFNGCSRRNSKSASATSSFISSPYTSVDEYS
To be noted: relative to NK(1) receptor.

Data set [4] relates to isolated brain slices.

Sequence of human NK(1) receptor (P25103 whole entry): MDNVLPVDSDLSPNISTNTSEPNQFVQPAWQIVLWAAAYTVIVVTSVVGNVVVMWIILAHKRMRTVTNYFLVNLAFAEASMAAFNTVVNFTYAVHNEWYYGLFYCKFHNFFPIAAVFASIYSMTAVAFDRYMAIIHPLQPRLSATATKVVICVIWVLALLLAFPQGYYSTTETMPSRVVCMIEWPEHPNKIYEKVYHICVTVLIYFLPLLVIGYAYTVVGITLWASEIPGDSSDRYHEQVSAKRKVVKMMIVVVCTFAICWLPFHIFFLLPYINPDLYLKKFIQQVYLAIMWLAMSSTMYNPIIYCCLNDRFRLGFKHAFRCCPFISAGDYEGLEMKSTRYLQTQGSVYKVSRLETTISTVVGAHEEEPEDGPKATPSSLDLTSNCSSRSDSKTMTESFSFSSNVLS

Turning to `Cc1cccc(C)c1NC(=O)C[C@H]1CCN(C(=O)c2cc(C(F)(F)F)cc(C(F)(F)F)c2)[C@@H](Cc2ccccc2)C1.O=C(O)C[C@H](O)C(=O)O` (relative stereo) [Example R116301, (2R-trans)-4-[1-[3,5-bis(trifluoromethyl)benzoyl]-2-(phenylmethyl)-4-piperidinyl]-N-(2,6-dimethylphenyl)-1-acetamide (S)-Hydroxybutanedioate], the Ki in data set [1] is 0.45 nM. In addition, the “selectivity toward NK(2) receptor” value in data set [2] is recorded as “over 200 fold”. Besides, the “selectivity toward NK(3) receptor” value in data set [3] is reported as “over 200 fold”.

In the case of `Cc1c(C)c2c(c(C)c1O)CC[C@](C)(C(=O)O)O2` [Trolox(R)], in data set [4], the ischemia-induced cell swelling result is recorded as “reduction of cell swelling”.

For the compound `CNC(=S)NC` [dimethylthiourea], the ischemia-induced cell swelling result in data set [4] is given as “reduction of cell swelling”.

With `CC1(C)CC(O)CC(C)(C)N1[O]` [tempol(R)], the ischemia-induced cell swelling result in data set [4] is “reduction of cell swelling”.

The Ki is a measure of affinity in units of concentration, obtained from inhibition or displacement.
